PubChem BioAssay (NCI)
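Five compound concentrations were applied to cells in 96-well plates for 48 hours; endpoints were derived by simple linear interpolation of the resulting dose-response curve. GI50 = concentration required for 50% inhibition of growth. TGI is the concentration that stops growth completely.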

How the values were obtained:
Test in all cases: NCI tumour cell line growth inhibition, 48 h
ACHN renal = test system: ACHN renal
BT-549 breast = test system: BT-549 breast
EKVX NSCLC = test system: EKVX NSCLC
HCT-15 colon = test system: HCT-15 colon
K-562 leukemia = test system: K-562 leukemia
LOX IMVI melanoma = test system: LOX IMVI melanoma
MDA-MB-435 = test system: MDA-MB-435
RXF 393 renal = test system: RXF 393 renal
UACC-257 melanoma = test system: UACC-257 melanoma
HS 578T breast = test system: HS 578T breast

Row | SMILES | GI50 (ACHN renal) [µM] | TGI (ACHN renal) [µM] | GI50 (BT-549 breast) [µM] | TGI (BT-549 breast) [µM] | GI50 (EKVX NSCLC) [µM] | TGI (EKVX NSCLC) [µM] | GI50 (HCT-15 colon) [µM] | TGI (HCT-15 colon) [µM] | GI50 (K-562 leukemia) [µM] | TGI (K-562 leukemia) [µM] | GI50 (LOX IMVI melanoma) [µM] | TGI (LOX IMVI melanoma) [µM] | GI50 (MDA-MB-435) [µM] | TGI (MDA-MB-435) [µM] | GI50 (RXF 393 renal) [µM] | TGI (RXF 393 renal) [µM] | GI50 (UACC-257 melanoma) [µM] | TGI (UACC-257 melanoma) [µM] | GI50 (HS 578T breast) [µM] | TGI (HS 578T breast) [µM]
1 | Nc1ccc2c(c1)C(=O)C(=O)c1c-2nc2ccccn12 | 1.22 | 2.46 | 1.49 | 2.82 | 2.04 | 4.52 | 0.427 | 1.87 | 1.09 | 3.88 | 0.327 | 1.33 | 0.186 | 0.352 | 1.6 | 2.99 | 1.08 | 2.28 | – | –
2 | OC1[C@H]([C@H]2CCCC[C@@H]2O)CCC[C@@H]1[C@@H]1CCCC[C@H]1O (stereo partly drawn) | – | > 100 | – | – | – | > 100 | – | > 100 | – | > 100 | – | > 100 | – | – | – | > 100 | – | > 100 | – | –
3 | CCNC(=O)[C@@H]1CCCN2C(=O)CC[C@H](NC(=O)[C@H](Cc3ccc(OP(=O)(O)O)cc3)NC(C)=O)C(=O)N12 | > 25 | > 25 | > 25 | > 25 | – | – | > 25 | > 25 | > 25 | > 25 | > 25 | > 25 | > 25 | > 25 | > 25 | > 25 | > 25 | > 25 | > 25 | > 25
4 | CCN(CC)CCOCC[C@H]1CC[C@H]2[C@@H]3[C@H](C)Cc4cc(OS(N)(=O)=O)ccc4[C@H]3CC[C@]12C | 1.95 | 5.33 | 1.67 | 3.99 | 0.765 | 3.65 | 1.66 | 4.72 | 0.547 | 2.26 | 1.33 | 2.77 | – | – | 1.67 | 4.12 | 1.74 | 3.34 | – | –
5 | COc1cc(NS(C)(=O)=O)ccc1Nc1c2ccc([N+](=O)[O-])cc2nc2c(C)cccc12 | 0.371 | 4.29 | 1.45 | 7.45 | – | – | 1.38 | 4.32 | 0.801 | 9.89 | 0.15 | 2.38 | 1.67 | 15 | 1.65 | 6.35 | 1.29 | 14.7 | 1.96 | 22.3
6 | CC1CC[C@]2(C(=O)O)CCC3(COC(=O)/C=C\c4ccc(O)cc4)C(=CCC4[C@@]5(C)CC[C@H](O)C(C)(C)C5CC[C@]43C)[C@@H]2[C@H]1C (stereo partly drawn) | – | 22.5 | – | – | – | 32.8 | – | > 100 | – | > 100 | – | 28.2 | – | – | – | 33.9 | – | 69.6 | – | –
7 | F | 3050 | > 6870 | 3050 | > 6870 | 2100 | 5220 | 3800 | > 6870 | 3630 | > 6870 | 2290 | > 6870 | 2080 | 5500 | 2360 | 5200 | 2160 | 4940 | – | –
8 | CN(Cc1cnc2nc(N)nc(N)c2n1)c1ccc(C(=O)NC(CCC(=O)O)C(=O)O)cc1C(F)(F)F (stereo not drawn) | – | > 100 | – | – | – | > 100 | – | > 100 | – | > 100 | – | > 100 | – | > 100 | – | > 100 | – | > 100 | – | > 100
9 | NC1=NC(=O)/C(=C/c2ccccc2[N+](=O)[O-])C(N)=N1 | – | > 100 | – | – | – | > 100 | – | > 100 | – | > 100 | – | > 100 | – | – | – | > 100 | – | > 100 | – | –
10 | CN1N=CSC12C(=O)N(c1ccc(Cl)cc1)C(=O)N2c1ccc(Cl)cc1 (stereo not drawn) | – | – | – | – | – | > 100 | – | – | – | 22.3 | – | 8.91 | – | – | – | 36.1 | – | 33.5 | – | –
11 | Cc1cn(Cc2ccccc2CCO)c(=S)[nH]c1=O | – | > 100 | – | – | – | > 100 | – | > 100 | – | > 100 | – | > 100 | – | – | – | > 100 | – | > 100 | – | –
12 | COc1cc(/C=C/c2ccncc2)cc(OC)c1OC | – | > 100 | – | – | – | > 100 | – | > 100 | – | > 100 | – | > 100 | – | – | – | 99.2 | – | > 100 | – | –
13 | CC(C)(C)NNC(=O)/C(=C/c1ccc([N+](=O)[O-])cc1)NC(=O)c1ccccc1 | – | > 100 | – | – | – | > 100 | – | > 100 | – | > 100 | – | 37.2 | – | – | – | > 100 | – | > 100 | – | –
14 | Cc1cc(N(CCC#N)CCC#N)ccc1/C=C1N=C(/C=C\c2ccccc2)OC\1=O | – | > 100 | – | – | – | > 100 | – | > 100 | – | > 100 | – | > 100 | – | – | – | > 100 | – | > 100 | – | –
15 | CC(C)(C)OC1=C(OC(C)(C)C)C(O)(c2ccccc2)C1=O (stereo not drawn) | – | > 100 | – | – | – | > 100 | – | > 100 | – | > 100 | – | > 100 | – | – | – | > 100 | – | – | – | –
16 | C[N+](C)(C)CC1CCCC/C1=N\OC(=O)c1ccccc1 (stereo not drawn) | – | > 100 | – | – | – | > 100 | – | > 100 | – | > 100 | – | > 100 | – | – | – | > 100 | – | > 100 | – | –
17 | CN1C(=O)CC(c2cccc(C3CC(=O)N(C)C3=O)n2)C1=O (stereo not drawn) | – | > 100 | – | – | – | > 100 | – | > 100 | – | > 100 | – | > 100 | – | – | – | > 100 | – | > 100 | – | –
18 | O=C(Nc1c(O)[nH]c(=S)[nH]c1=O)c1ccccc1F | – | > 100 | – | – | – | – | – | > 100 | – | > 100 | – | > 100 | – | – | – | – | – | > 100 | – | –
19 | COc1cccc2c1C(=O)C=CC2=O | – | 10.5 | – | 29.1 | – | 32.8 | – | 24.2 | – | 4.97 | – | – | – | 26.2 | – | 17.7 | – | 29 | – | > 100
20 | COc1ccc(C2CC(=O)c3c(O)cc(O)cc3O2)cc1O (stereo not drawn) | – | > 100 | – | – | – | > 100 | – | > 100 | – | > 100 | – | > 100 | – | – | – | – | – | > 100 | – | –
21 | Cc1ccc(S(=O)(=O)N[C@H](C(=O)O)c2ccccc2)cc1 | – | > 100 | – | – | – | > 100 | – | > 100 | – | > 100 | – | > 100 | – | – | – | > 100 | – | > 100 | – | –
